Laboratory results from patent US10800741B2 (ANCUREALL PHARMACEUTICAL (SHANGHAI) CO., LTD., priority 2017, dated 2020).
Read-outs that look alike come from different tables or passages of the source.

Columns and labels:
Assay type in all cases: cell-based, Human
Karpas 299 (NPM-ALK) = experiment: In vitro growth inhibition of Karpas 299 tumor cells (MTT/CCK8); conditions: Homo sapiens
MOLM-13 (FLT3-ITD) = experiment: In vitro growth inhibition of MOLM-13 tumor cells (MTT/CCK8); conditions: Homo sapiens
Kasumi-1 (KIT N822K) = experiment: In vitro growth inhibition of Kasumi-1 tumor cells (MTT/CCK8); conditions: Homo sapiens
H1581 (FGFR1 amp) = experiment: In vitro growth inhibition of H1581 tumor cells (MTT/CCK8); conditions: Homo sapiens
KCL-22 (BCR-ABL) = experiment: In vitro growth inhibition of KCL-22 tumor cells (MTT/CCK8); conditions: Homo sapiens
KATO III (FGFR2 amp) = experiment: In vitro growth inhibition of KATO III tumor cells (MTT/CCK8); conditions: Homo sapiens, KATO III, read-out: IC50 KATO III (FGFR2 amp)
H1703 (PDGFRa amp) = experiment: In vitro growth inhibition of H1703 tumor cells (MTT/CCK8); conditions: Homo sapiens
Hep3B2 (FGFR3/4+++) = experiment: In vitro growth inhibition of Hep3B2 tumor cells (MTT/CCK8); conditions: Homo sapiens, Hep3B, read-out: IC50 Hep3B2 (FGFR3/4+++)
[1] = KARPAS-299, in vitro growth inhibition (or induction of apoptosis), cells cultured 3 to 5 days, MTT (CCK8), read-out: IC50 Karpas 299 (NPM-ALK)
[2] = MOLM-13, in vitro growth inhibition (or induction of apoptosis), cells cultured 3 to 5 days, MTT (CCK8), read-out: IC50 MOLM-13 (FLT3-ITD)
[3] = Kasumi 1, in vitro growth inhibition (or induction of apoptosis), cells cultured 3 to 5 days, MTT (CCK8), read-out: IC50 Kasumi-1 (KIT N822K)
[4] = NCI-H1581, in vitro growth inhibition (or induction of apoptosis), cells cultured 3 to 5 days, MTT (CCK8), read-out: IC50 H1581 (FGFR1 amp)
[5] = KCL-22, in vitro growth inhibition (or induction of apoptosis), cells cultured 3 to 5 days, MTT (CCK8), read-out: IC50 KCL-22 (BCR-ABL)
[6] = in vitro growth inhibition (or induction of apoptosis), cells cultured 3 to 5 days, MTT (CCK8)
[7] = NCI-H1703, in vitro growth inhibition (or induction of apoptosis), cells cultured 3 to 5 days, MTT (CCK8), read-out: IC50 H1703 (PDGFRa amp)

Row | SMILES | IC50 (Karpas 299 (NPM-ALK); [1]) | IC50 (MOLM-13 (FLT3-ITD); [2]) | IC50 (Kasumi-1 (KIT N822K); [3]) | IC50 (H1581 (FGFR1 amp); [4]) | IC50 (KCL-22 (BCR-ABL); [5]) | IC50 (KATO III (FGFR2 amp); [6]) | IC50 (H1703 (PDGFRa amp); [7]) | IC50 (Hep3B2 (FGFR3/4+++); [6]) | IC50 (Karpas 299 (NPM-ALK); KARPAS-299, read-out: IC50 Karpas 299 (NPM-ALK)) | IC50 (MOLM-13 (FLT3-ITD); MOLM-13, read-out: IC50 MOLM-13 (FLT3-ITD)) | IC50 (Kasumi-1 (KIT N822K); Kasumi 1, read-out: IC50 Kasumi-1 (KIT N822K)) | IC50 (H1581 (FGFR1 amp); NCI-H1581, read-out: IC50 H1581 (FGFR1 amp)) | IC50 (KCL-22 (BCR-ABL); KCL-22, read-out: IC50 KCL-22 (BCR-ABL)) | IC50 (KATO III (FGFR2 amp)) | IC50 (H1703 (PDGFRa amp); NCI-H1703, read-out: IC50 H1703 (PDGFRa amp)) | IC50 (Hep3B2 (FGFR3/4+++))
1 | COc1cc2nccc(Oc3ccc(NC(=O)Nc4cc(C(C)(C)C)n[nH]4)cc3C(C)C)c2cc1C(N)=O [Compound 107, 4-{4-[3-(5-tert-butyl-2H-pyrazol-3-yl)-ureido]-2-isopropyl-phenoxy}-7-methoxy-quinolin-6-carboxamide] | 759 nM | 50.4 nM | > 1000 nM | 341 nM | 589 nM | 345 nM | 263 nM | > 1000 nM |  |  |  |  |  |  |  | 
2 | CCN1CCN(c2ccc(Nc3cc(NC(=O)Nc4ccc(Oc5ccnc6cc(OC)c(C(N)=O)cc56)c(Cl)c4Cl)ncn3)cc2)CC1 [Compound 71] | > 1000 nM | > 1000 nM | > 1000 nM | > 1000 nM | ≥ 1000 nM | > 1000 nM | > 1000 nM | > 1000 nM |  |  |  |  |  |  |  | 
3 | COc1cc2nccc(Oc3ccc(NC(=O)Nc4cc(C(C)(C)C)on4)c(Cl)c3)c2cc1[N+](=O)[O-] [Compound 18, 1-(5-tert-butyl-isoxazol-3-yl)-3-[2-chloro-4-(7-methoxy-6-nitro-quinolin-4-yloxy)-phenyl]-urea] | > 1000 nM | 410 nM | 59.6 nM | 224 nM | 83.6 nM | 6.73 nM | 68 nM | 638 nM |  |  |  |  |  |  |  | 
4 | COc1cc2nccc(Oc3ccc(NC(=O)Nc4cc(C(C)(C)C)no4)c(Cl)c3)c2cc1C(N)=O [Compound 13, 4-{4-[3-(3-tert-butyl-isoxazol-5-yl)-ureido]-3-chloro-phenoxy}-7-methoxyquinolin-6-carboxamide] | 252 nM | 5.41 nM | 5.46 nM | 0.86 nM | 3.19 nM | 0.84 nM | 9.74 nM | 6.61 nM |  |  |  |  |  |  |  | 
5 | COc1cc2nccc(Oc3ccc(NC(=O)Nc4cc(C(C)(C)C)nn4CCN4CCOCC4)c(Cl)c3)c2cc1C(N)=O [Compound 31, 4-(4-{3-[5-tert-butyl-2-(2-morpholin-4-yl-ethyl)-2H-pyrazol-3-yl]-ureido}-3-chloro-phenoxy)-7-methoxyquinolin-6-carboxamide] | 465 nM | 9.45 nM | 40.4 nM | 23.4 nM | 51.2 nM | 0.12 nM | 25 nM | 32.9 nM |  |  |  |  |  |  |  | 
6 | CNC(=O)c1cc2c(Oc3ccc(NC(=O)Nc4cc(C(C)(C)C)no4)c(Cl)c3)ccnc2cc1OC [Compound 15, 4-{4-[3-(3-tert-butyl-isoxazol-5-yl)-ureido]-3-chloro-phenoxy}-7-methoxyquinolin-6-carboxylic acid methylamide] | 516 nM | 5.25 nM | 5.43 nM | 1.06 nM | 4.09 nM | 1.34 nM | 12.9 nM | 24.1 nM |  |  |  |  |  |  |  | 
7 | CCC(=O)N1CCC(NC(=O)Nc2ccc(Oc3ccnc4cc(OC)c(C(N)=O)cc34)cc2Cl)C1 (stereo not shown) [Compound 69, 4-{3-chloro-4-[3-(1-propionyl-pyrrolidin-3-yl)-ureido]-phenoxy}-7-methoxyquinolin-6-carboxamide] | > 1000 nM | > 1000 nM | > 1000 nM | > 1000 nM | > 1000 nM | > 1000 nM | > 1000 nM | > 1000 nM |  |  |  |  |  |  |  | 
8 | CNC(=O)c1cc2c(Oc3ccc(NC(=O)n4nc(C(C)(C)C)cc4N)c(Cl)c3)ccnc2cc1OC [Compound 72] |  |  |  |  |  |  |  |  | 736 nM | 50.8 nM | 137 nM | 165 nM | 117 nM | 6.18 nM | 250 nM | 159 nM
9 | CNC(=O)c1cc2c(Oc3ccc(NC(=O)Nc4cc(C(C)(C)C)nn4C)cc3Cl)ccnc2cc1OC [Compound 55, 4-{4-[3-(5-tert-butyl-2-methyl-2H-pyrazol-3-yl)-ureido]-2-chloro-phenoxy}-7-methoxy quinolin-6-carboxylic acid methylamide] | 160 nM | 1.16 nM | 91.8 nM | 79.9 nM | 57 nM | 2.96 nM | 83.3 nM | 157 nM |  |  |  |  |  |  |  | 
10 | COc1cc2nccc(Oc3ccc(NC(=O)N4CCc5ccsc5C4)c(Cl)c3)c2cc1C(N)=O [Compound 74, 4-{3-chloro-4-[(4,7-dihydro-5H-thieno[2,3-c]pyridin-6-carbonyl)-amino]-phenoxy}-7-methoxyquinolin-6-carboxamide] | > 1000 nM | > 1000 nM | > 1000 nM | > 1000 nM | > 1000 nM | > 1000 nM | > 1000 nM | > 1000 nM |  |  |  |  |  |  |  | 
11 | COc1cc2nc(Cl)cc(Oc3ccc(NC(=O)Nc4cc(C(C)(C)C)nn4C)c(Cl)c3)c2cc1C(N)=O [Compound 39, 4-{4-[3-(5-tert-butyl-2-methyl-2H-pyrazol-3-yl)-ureido]-3-chloro-phenoxy}-2-chloro-7-methoxyquinolin-6-carboxamide] | > 1000 nM | > 1000 nM | > 1000 nM | > 1000 nM | > 2500 nM | > 1000 nM | > 1000 nM | > 1000 nM |  |  |  |  |  |  |  | 
12 | CCn1nc(C(C)(C)C)cc1NC(=O)Nc1ccc(Oc2ccnc3cc(OC)c(C(=O)NC)cc23)cc1Cl [Compound 47] | 466 nM | 7.42 nM | 15.9 nM | 4.93 nM | 9.38 nM | 0.73 nM | 14.7 nM | 39.3 nM |  |  |  |  |  |  |  | 
13 | CCC(=O)n1nc(C(C)(C)C)cc1NC(=O)Nc1ccc(Oc2ccnc3cc(OC)c(C(N)=O)cc23)cc1Cl [Compound 29, 4-{4-[3-(5-tert-butyl-2-propanoyl-2H-pyrazol-3-yl)-ureido]-3-chloro-phenoxy}-7-methoxyquinolin-6-carboxamide] | 626 nM | 11.5 nM | 66.8 nM | 26.3 nM | 29.4 nM | 1.48 nM | 18 nM | 29.4 nM |  |  |  |  |  |  |  | 
14 | COc1cc2nccc(Oc3ccc(NC(=O)Nc4cc(C(C)(C)C)n[nH]4)c(C)c3C)c2cc1C(N)=O [Compound 109, 4-{4-[3-(5-tert-butyl-2H-pyrazol-3-yl)-ureido]-2,3-dimethyl-phenoxy}-7-methoxy-quinolin-6-carboxamide] | 559 nM | 18.7 nM | 0.471 nM | 17.7 nM | 2.48 nM | 1.55 nM | 108 nM | 98.7 nM |  |  |  |  |  |  |  | 
